Experimental data published in patent US8680076B2, “Methods of treatment, improvement and prevention using haloaryl substituted aminopurines” (Signal Pharmaceuticals, LLC, priority 2010, dated 2014).
“Also recorded” adds a separate entry of the source.

Legend:
[1] = test system: phospho c-Jun (JNK) in human skin; assay: UVB-irradiated human skin, phospho c-Jun IHC (3-way crossover study); type: in vivo; conditions: for median subjective score of phospho c-Jun: scale 0-4, placebo score 4
Method: The inhibitory effect of JNKi-1 on JNK was evaluated by assessing the status of the downstream substrate c-Jun (“cJun”) and phospho-c-Jun (or “p-cJun”) following UV irradiation of human skin.
The study was designed as randomized, double blind, placebo controlled, multiple dose, 3-way crossover study. Fifteen subjects were randomized to one of 3 sequences (5 subjects per sequence) as outlined below (see Table 3). There was a 7-day to 10 day washout period (no more than 14 days) from the last dose of the previous period to the first dose of the next period.
Fifteen patients enrolled, 14 completed the study and were included in the PD and PK analyses; all were healthy Caucasian male volunteers with Fitzpatrick skin type 2. The mean age was […] (20-49 years) and weight was 81 kg (64-96 kg). On the evening of Day-1, patients started fasting (at least an 8-hour fast prior to dosing on Day 1). Subjects received treatment A, B or C in Periods 1 to 3 under fasting conditions in an order based on the randomization scheme. Subjects went through the same procedures (except for the change in treatment) for all 3 periods, with the required washout in between periods. No strenuous activities were permitted during confinement. All efforts were made to keep activities, environment, food, procedures, and schedule between treatment periods identical.
On Day 6, subjects received a 2×MED UV dose to two sites on the buttock. One punch biopsy (approximately 3 mm in diameter by 0.8 mm in depth) was taken from one of the two UV irradiated sites. The punch biopsies were taken at 8 (±5 minutes) hours post UV exposure on Day 6.
Skin specimens from the biopsies was analyzed for phospho c-Jun and total c-Jun using IHC assay. Phospho c-Jun was quantified using a 0-4 subjective grading scales and/or objective scoring using an automated system, i.e. a laser scanning cytometer (LSC), evaluating the integrated intensity of staining measured optically.
Biopsies were analyzed following the procedures described below to evaluate phospho c-Jun and c-Jun expression using IHC assay. The method employed to assess JNK activation was a two antibody IHC assay that employed a primary antibody, directed against the target, and a secondary antibody conjugated with a chromogenic enzyme. Thus, the method was a two-step immunohistochemical assay designed to interrogate the target, c-Jun and phospho c-Jun. Any changes in JNK activity were measurable in the amounts of these target molecules, c-Jun and phospho c-Jun. The secondary antibody-reporter conjugate deposited a red color when incubated with the substrate reaction mix, thus marking the location of the primary antibody target complex. The red color was then recorded with standard bright-field illumination using a Nikon microscope. The microscope images were then photographed and electronic images were scored (blinded) by three independent and trained scorers using the following guidelines. A score of 0 indicated staining of 0-19% of the epithelial keratinocyte nuclei; a score of 1 indicated staining of 20-39% of the epithelial keratinocyte nuclei; a score of 2 indicated staining of 40-59% of the epithelial keratinocyte nuclei; a score of 3 indicated staining of 60-79% of the epithelial keratinocyte nuclei; and a score of 4 indicated staining of 80-100% of the epithelial keratinocyte nuclei. FIG. 21 depicts representative immunostaining for the respective scores.
For each tissue, a count of nuclei in the epithelial layer was obtained. All phospho c-Jun or c-Jun positive nuclei were counted as well as their integral (intensity). A score was calculated for each: score=(p-cJun or cJun positive nuclei×average Intensity)/Total nuclei.

[2] = test system: phospho-c-Jun (JNK) in EpiDermFT reconstituted human skin equivalent; assay: UVB-stimulated JNK activation in EpiDermFT skin model (Western blot); type: cell-based
Method: Two in vitro systems, nHEK and the EpiDermFT™ skin model, were used in this study. The nHEK cells and EpiDermFT™ samples were pretreated with JNKi-1 at concentrations of 0.1, 3, and 10 μM prior to 60 mJ/cm^2 and 135 mJ/cm^2 UVB irradiation, respectively. After UV stimulation, the activities of JNK were measured as levels of phospho-c-Jun via immunoblotting of cell lysates using an anti-phospho-c-Jun S63 antibody. Phospho-Stat3 was also evaluated as a marker of JNK activation.
Samples were cultured in 2 mL of serum-free maintenance media (EFT-200-MM) for 72 hr. After 72 hr, the media was replaced with 2 mL of fresh media containing 0, 0.1, 3, and 10 μM of JNKi-1, respectively). Samples were allowed to soak at 37° C., 5% CO2 for 6 hr, then removed from the media and placed into 2 mL of PBS and irradiated with 135 mJ/cm^2 of UVB. Controls were sham irradiated. Samples were placed back into 2 mL of media containing JNKi-1. Samples were harvested at 30 minutes and 3 hr post UV treatment. Each sample was cut in half; one half was snap frozen in liquid nitrogen, homogenized in lysis buffer, and lysates stored at −80° C. The other half was placed in 10% neutral buffer formalin for 3 hr and transferred to 100% ethanol for processing
cells were pre-incubated with either dimethyl sulfoxide (DMSO) (FIG. 31, lanes 1, 2, and 12 to 15) or JNKi-1 at the indicated concentration (lanes 3 to 11) for 1 hr and then irradiated without (Control, lanes 1 and 2) or with UVB at 60 mJ/cm^2 (lanes 3 to 15). Cells were lysed 30 minutes after UV irradiation and cell lysates were subjected to sodium dodecyl sulfate polyacrylamide gel electrophoresis (SDS-PAGE) before Western blotting with anti-phospho-c-Jun antibody. […]
Western analysis: For Western blot analysis, 20 to 25 μg of total protein were applied to SDS-PAGE gels followed by electrophoresis and blotting. […] The intensity of each band was quantified by the Odyssey 2.1 software and exported into Excel for further analysis. […]

O[C@H]1CC[C@H](Nc2ncc3nc(Nc4c(F)cc(F)cc4F)n([C@H]4CCOC4)c3n2)CC1 [JNKi-1, 4-((9-((3S)-tetrahydro-3-furanyl)-8-((2,4,6-trifluorophenyl)amino)-9H-purin-2-yl)amino)-trans-cyclohexanol] was tested, and the “patients with reduced phospho c-Jun, subjective scoring” value ([1]; 75 mg QD x 6 days) was 57%, the “patients with reduced phospho c-Jun, subjective scoring” value ([1]; 75 mg QD x 6 days, 2xMED UVB, biopsy 8 hours post UV) was 8/14 and the “median subjective score of phospho c-Jun” value ([1]; 75 mg QD x 6 days) was 3. The “frequency of high phospho c-Jun subjective scores” value ([1]; 75 mg and 200 mg vs placebo) was “fewer subjects had high p-cJun scores; also recorded: fewer patients had high scores”, the “phospho c-Jun by laser scanning cytometry (LSC) analysis” value ([1]; 75 mg or 200 mg) was “Decrease in phospho c-Jun was confirmed” and the “odds ratio, phospho c-Jun scores 0, 1, 2 vs. scores 3, 4 (logistic regression)” value ([1]; 75 mg vs. placebo) was 10.96. The “patients with inhibited phospho c-Jun, subjective scoring” value ([1]; 200 mg QD x 6 days) was 78%, the “patients with inhibited phospho c-Jun, subjective scoring” value ([1]; 200 mg QD x 6 days, 2xMED UVB, biopsy 8 hours post UV) was 11/14 and the “median subjective score of phospho c-Jun” value ([1]; 200 mg QD x 6 days) was 1. The “odds ratio, phospho c-Jun scores 0, 1, 2 vs. scores 3, 4 (logistic regression)” value ([1]; 200 mg vs. placebo) was 41.89, the “elevation of phospho c-Jun induced by the UVB irradiation” value ([1]; oral, about 75 mg to about 200 mg, in a majority of patients) was “partially or completely inhibited” and the “phospho c-Jun immunostaining, percentage of positive epithelial nuclei, Patient 15” value ([1]; versus placebo) was “significantly decreased”. For the same molecule, the “UVB-induced JNK activation (phospho-c-Jun level), in words” value ([2]; EpiDermFT, 0.1, 3, 10 μM) was “strongly Inhibits; also recorded: significantly blocks”, the “inhibition of phospho-Stat3” value ([2]; EpiDermFT, 30 minutes post UV, data not shown) was “minimal” and the IC50 ([2]; Homo sapiens, light or radiation study, 0.5 h, EpiDermFT, UVB 135 mJ/cm^2, lysed 30 minutes after UV, read-out: IC50 for p-cJun) was 100 to 3000 nM.
